Laboratory results published in US6358998B1, “Body fat-reducing agent comprising dioxabicyclo[3.3.0] octane derivative as active ingredient” (Rinoru Oil Mills Co., LTD, priority 1999, dated 2002).

Assays:
fat tissues of rats = assay: Example 1: four-week feeding of experimental diet to rats, organ and fat tissue weights; type: in vivo, rat; settings: Sprague-Dawley male rats, four weeks of feeding, compared with the control group
Excerpt: Sprague-Dawley male rats of four weeks of age were acclimatized, and then divided into three groups (each group consisting of 8 rats), a 1.0% linoleic acid group (a control group), 0.2% sesamin group, and 0.2% sesamin+1.0% CLA group. The experimental diet shown in Table 1 and water were then freely fed to these three groups of rats. […] Four weeks after the initiation of feeding, the 8 rats constituting each group were scarified, and the organs were taken out.

perfused liver = assay: Example 2: liver perfusion experiment, triglyceride secretion; type: in vivo, rat; settings: Sprague-Dawley male rats, three weeks of feeding, compared with the control group
Excerpt: Sprague-Dawley male rats of four weeks of age were acclimatized for 5 to 11 days, and then divided into three groups (each group consisting of 5 rats), a 1.0% linoleic acid group (a control group), 0.2% sesamin group, and 0.2% sesamin+1.0% CLA group. In the experiment, CE-2 (lipid content 4.5%) manufactured by CLEA JAPAN INC. with 1.5% of a soybean oil being added thereto was used as a basic diet, and the experimental diet was freely fed to the rats. […] Three weeks after the initiation of feeding, a liver perfusion experiment was carried out.

c1cc2c(cc1[C@H]1OC[C@H]3[C@@H]1CO[C@@H]3c1ccc3c(c1)OCO3)OCO2 [Sesamin, sesamin]
reduced: weight of fat tissues around epididymis (fat tissues of rats) | weight of fat tissues around kidney (fat tissues of rats) | amount of triglyceride secreted from the perfused liver (perfused liver)
